Assays:
[1] = test system: wild-type C. albicans (CAF2); test: β-glucan exposure: anti-β-glucan antibody staining, microscopy and FACS; format: cell-based; conditions: for Mean fluorescence intensity (MFI), anti-β-glucan staining: FACS with PE-labeled secondary antibody
Procedure: (§1) Fungi were grown overnight in YPD rich medium for yeast-form growth and RPMI 1640 for hyphal growth. C. albicans was grown at 37° C.; S. cerevisiae was grown at 30° C. For CF treatment, overnight cultures of C. albicans CAF2 were diluted 1:1,000 into fresh YPD or RPMI 1640 containing dilutions of CF (caspofungin acetate, Candidas formulation, Merck, Whitehouse Station, N.J., United States) and grown overnight. […] For viability, cells were stained with propidium iodide (Sigma, St. Louis, Mo., United States).
Fungi were grown overnight, washed, blocked in PBS+2% BSA, and stained with either the anti-β-glucan antibody (followed by Cy3- or PE-labeled secondary antibody), Alexa Fluor-labeled Dectin-CRD, or Dectin-CRD-anti-Myc. Staining with antibody and Dectin-CRD is described above for the screen. For staining with Dectin-CRD-anti-Myc, Dectin-CRD was preincubated with FITC-labeled anti-Myc (Invitrogen) at a ratio of 3.4 μg of Dectin-CRD+10 μl of anti-Myc, and then added to fungi at 1:100 on ice. Preincubation of Dectin-CRD with anti-Myc creates a probe with the same approximate size as the anti-β-glucan antibody but with the specificity of Dectin-1. Images of stained cells were taken using a Nikon TE2000-S microscope (Nikon, Tokyo, Japan) equipped with Spot RT camera (Diagnostic Instruments, Sterling Heights, Mich., United States) and processed in Photoshop (Adobe Systems, Palo Alto, Calif., United States). Fluorescence was quantified on a FACScalibur cytometer (Becton-Dickinson, Palo Alto, Calif., United States); cells were gated by forward and side scatter based on wild-type cell size and shape, and mean fluorescence intensity of 20,000 labeled cells was calculated using Cellquest software (Becton-Dickinson).
Cultures grown at one-quarter and one-eighth of the CF MIC50 (minimal inhibitory concentration to inhibit 50% of the organisms) were stained with anti-β-glucan antibody and Cy3-labeled secondary antibody (FIGS. 2A and D) for visualization by microscopy or with PE-labeled secondary antibody (FIG. 2B) for FACS quantification. […]

C. albicans CAF2 = test: Growth inhibition of C. albicans by caspofungin (MIC50); format: cell-based; conditions: C. albicans CAF2 grown overnight in dilutions of CF
Procedure: as §1

[2] = test system: wild-type C. albicans (CAF2); test: Viability by propidium iodide staining / microscopic examination; format: cell-based
Procedure: as §1
Cultures grown at one-quarter and one-eighth of the CF MIC50 (minimal inhibitory concentration to inhibit 50% of the organisms) were stained with anti-β-glucan antibody and Cy3-labeled secondary antibody (FIGS. 2A and D) for visualization by microscopy or with PE-labeled secondary antibody (FIG. 2B) for FACS quantification. […] Concurrently, cells were labeled briefly with propidium iodide to assess viability and visualized by epifluorescence microscopy or quantified by FACS (FIG. 2C). Cells grown overnight in YPD with or without CF were UV-inactivated and then exposed to BMDMs at a yeast:macrophage ratio of 10:1. Supernatants were taken at 6 h and assayed for TNFα (FIG. 2E).

anti-β-glucan antibody = test: Blocking of anti-β-glucan antibody binding to gas1Δ mutant; conditions: S. cerevisiae gas1Δ
Procedure: Overnight cultures of strains were grown in YPD and stained with anti-β-glucan primary antibody (Biosupplies Inc., Parkville, Australia) and Cy3-labeled goat-anti-mouse secondary. […] Stained cells were adhered to clear-bottom plates with concanavalin A (Sigma) and scanned with Cellomics VTI fluorescence microscopic imager (Cellomics, Pittsburgh, Pa., United States) using Target Acquisition software (Zeiss, Oberkochen, Germany). Mean average intensity and standard deviation of average intensity measurements were used to identify strains with over two standard deviations greater β-glucan exposure. Initially matA mutant strains were screened, then the independently constructed matα counterparts were screened. […]
Fungi were grown overnight, washed, blocked in PBS+2% BSA, and stained with either the anti-β-glucan antibody (followed by Cy3- or PE-labeled secondary antibody), Alexa Fluor-labeled Dectin-CRD, or Dectin-CRD-anti-Myc. […] Fluorescence was quantified on a FACScalibur cytometer (Becton-Dickinson, Palo Alto, Calif., United States); cells were gated by forward and side scatter based on wild-type cell size and shape, and mean fluorescence intensity of 20,000 labeled cells was calculated using Cellquest software (Becton-Dickinson).

β-glucan receptor = test: Laminarin preincubation of BMDMs (β-glucan receptor blocking), cytokine ELISA; format: cell-based, BL/6 mice
Procedure: RAW264.7 macrophages (ATCC, Manassas, Va., United States) were cultured in RPMI-10 (RPMI 1640 with 10% heat-inactivated fetal bovine serum and standard concentrations of penicillin-streptomycin; GIBCO, San Diego, Calif., United States). Cells were collected and plated in 24-well plates at 5×10^5 cells/well. Bone marrow derived macro-phages (BMDMs) were differentiated as described (Brown G D, et al., (2003), J Exp Med 197:1119). Briefly, bone marrow from BL/6 mice was cultured in RPMI-10 with 15% L-cell conditioned media and 25 ng/ml recombinant M-CSF (R&D Systems, Minneapolis, Minn., United States). Cells were collected after 6 d and plated in 24-well plates at 5×10^5 cells/well.
Fungi were grown overnight, washed extensively to remove any shed proteins or polysaccharides, and normalized by OD600 or hemacytometer (these two methods produced equivalent results). For S. cerevisiae, live fungi were added to RAW264.7 macrophages at equivalent effector:target (E:T) ratio of 1:5 in 24-well plates and incubated for 6 h, when supernatants were collected for ELISA. […]
In FIG. 1A, C. albicans strains were exposed to RAW264.7 macrophages at a ratio of 2:1 (yeast:macrophage), and supernatants were collected after 6 h. […] After unbound fungi were washed off, macrophages were incubated for 6 h at 37° C., and supernatants were collected for TNFα quantitation.

Substance | Mean fluorescence intensity (MFI), anti-β-glucan staining ([1]; one-eighth the CF MIC50, YPD) | Mean fluorescence intensity (MFI), anti-β-glucan staining ([1]; one-quarter the CF MIC50, YPD) | exposure of β-glucan on hyphae ([1]; subinhibitory doses of CF, RPMI 1640 (hyphal growth)) | MIC50 (C. albicans CAF2) [ng/mL] | viability of fungi ([2]; sub-inhibitory CF concentrations, YPD, propidium iodide) | cell death of hyphae ([2]; subinhibitory CF, RPMI 1640, microscopic examination) | binding of anti-β-glucan antibody to gas1Δ mutant in presence of soluble β-glucan (anti-β-glucan antibody) | increased elicitation of pro-inflammatory cytokines by unmasked C. albicans mutants after laminarin preincubation (β-glucan receptor; BMDMs preincubated 20 min on ice, yeast:macrophage 10:1, 6 h) | stimulation of macrophages by laminarin alone (β-glucan receptor; BMDMs, 100 μg/ml laminarin, no fungi, TNFα)
caspofungin acetate [CF] | 65 | 161 | dramatic increase | 2.5 | without loss of viability | did not show increased cell death | – | – | –
laminarin | – | – | – | – | – | – | blocked | great majority of the increased elicitation of pro-inflammatory cytokines could be blocked | does not stimulate
